Assay results: ChEMBL document CHEMBL4680351, “Antimicrobial and cytotoxic effects of ammonium derivatives of diterpenoids steviol and isosteviol” (Bioorg Med Chem, 2021)
Values after ≈ are worked out from the molar mass of the structure shown. Non-standard residues stand in square brackets, D forms with d. Residues, ends and D or L forms follow the SMILES beside them. Orn = NCCC[C@H](N)C(=O)O

Experiments:
[1] = Hemolytic activity against human erythrocytes after 1 hr by digital photoelectric colorimetric method; type: ADME, cell-based, Erythrocyte
Staphylococcus aureus [2] = test: Bactericidal activity against Staphylococcus aureus MRSA-1 measured every 24 hrs for 5 days by serial dilution method; type: functional; conditions: MRSA-1, 120 h, time 5 day
Staphylococcus aureus [3] = test: Bactericidal activity against Staphylococcus aureus MRSA-2 measured every 24 hrs for 5 days by serial dilution method; type: functional; conditions: MRSA-2, 120 h, time 5 day
Staphylococcus aureus [4] = test: Bactericidal activity against Staphylococcus aureus 209P measured every 24 hrs for 5 days by serial dilution method; type: functional; conditions: 120 h, time 5 day
Staphylococcus aureus [5] = test: Antibacterial activity against Staphylococcus aureus 209P assessed as bacterial growth inhibition in Mueller-Hinton broth 2 measured every 24 hrs for 5 days by serial dilution method; type: functional; conditions: 120 h, time 5 day
Staphylococcus aureus [6] = test: Antibacterial activity against Staphylococcus aureus MRSA-2 assessed as bacterial growth inhibition in Mueller-Hinton broth 2 measured every 24 hrs for 5 days by serial dilution method; type: functional; conditions: MRSA-2, 120 h, time 5 day
Staphylococcus aureus [7] = test: Antibacterial activity against Staphylococcus aureus MRSA-1 assessed as bacterial growth inhibition in Mueller-Hinton broth 2 measured every 24 hrs for 5 days by serial dilution method; type: functional; conditions: MRSA-1, 120 h, time 5 day

| SMILES | HC50 at 1 h [1] | MBC (Staphylococcus aureus [2]) | MBC (Staphylococcus aureus [3]) | MBC (Staphylococcus aureus [4]) | MIC (Staphylococcus aureus [5]) | MIC (Staphylococcus aureus [6]) | MIC (Staphylococcus aureus [7]) |
| --- | --- | --- | --- | --- | --- | --- | --- |
| CC(C)C[C@@H]1NC(=O)[C@H](CCCN)NC(=O)[C@H](C(C)C)NC(=O)[C@@H]2CCCN2C(=O)[C@@H](Cc2ccccc2)NC(=O)[C@H](CC(C)C)NC(=O)[C@H](CCCN)NC(=O)[C@H](C(C)C)NC(=O)[C@@H]2CCCN2C(=O)[C@@H](Cc2ccccc2)NC1=O [GRAMICIDIN S] (cyclo(L[dF]PV[Orn]L[dF]PV[Orn])) | 9.4 µM | – | – | – | – | – | – |
| O=C(O)c1cn(C2CC2)c2cc(N3CCNCC3)c(F)cc2c1=O [CIPROFLOXACIN] | – | 755 µM (≈ 250 µg/mL) | 2.7 µM (≈ 0.895 µg/mL) | 1.5 µM (≈ 0.497 µg/mL) | 1.5 µM (≈ 0.497 µg/mL) | 2.7 µM (≈ 0.895 µg/mL) | 377 µM (≈ 125 µg/mL) |
